Assay results from US20120202287A1, “Stem Cell Culture Methods” (priority 2009, published 2012).

What was measured:
[1] = Solubility in 5% DMSO-water; type: physicochemical
SA121 hESCs = assay: General (monolayer) differentiation on matrigel in defined media, qRT-PCR of stem cell and differentiation markers after 14 days; type: cell-based, human; set-up: key to NO EHNA EFFECT: X: NO EHNA EFFECT; key to Full EHNA effect: those which maintained at least 50% of the level of NANOG-expression in comparison to EHNA and those that inhibited the expression of PAX6 to 50% or less than the value untreated controls were considered to have an EHNA-like effect; settings: 14 days, qRT-PCR; for PARTIAL EHNA EFFECT (PAX6) / NO EHNA EFFECT / Full EHNA effect: 10 uM; for PARTIAL EHNA EFFECT (PAX6): only PAX6 50% or less of untreated control; for NO EHNA EFFECT: neither NANOG nor PAX6 criterion met; for Full EHNA effect: NANOG at least 50% of EHNA level and PAX6 50% or less of untreated control
Experimental: In order to ascertain the efficacy of the compounds of the present invention, each compound was tested to determine whether it can maintain the stem cell marker NANOG and/or block the differentiation marker PAX6 in the face of differentiating conditions in a manner similar to EHNA. Cells enzymatically passaged onto matrigel-coated dishes and grown for 2 weeks in defined media with or without (control) compound addition were analysed by qRT-PCR to determine the level of NANOG and PAX6 expression.
For general differentiation experiments cells were passaged with trypsin onto matrigel coated twelve-well dishes in the fully supportive media (see above). The media was then changed to defined media 24 h later and any experimental component was first added at this point. The media and experimental supplement were changed daily.
Cells were routinely harvested for qRT-PCR analysis 14 days after the first addition of the experimental compound.
Total RNA was extracted using QIAGEN RNeasy kits (Qiagen Inc, Valencia, Calif., http://www.qiagen.com) and DNaseI treatment was performed using Turbo DNA-Free (Ambion). The absence of genomic DNA was confirmed by quantitative PCR (qPCR) (see below) using glyceraldehyde-3-phosphate dehydrogenase (GAPDH) Taqman primers and probe (MWG). cDNA was synthesized with 2 μg total RNA in 20 μl using Superscript II according to manufacturers' instructions ((Carlsbad, Calif., http://www.Invitrogen.com)). For qPCR, cDNAs were diluted 1 in 60 and 5 μl used per sample in a 15 μl total reaction volume. Platinum pPCR supermix UDG with Rox (Carlsbad, Calif., http://www.Invitrogen.com) was used according to the manufacturer's instructions using an Applied Biosystems 7300 real time PCR system (Applied Biosystems, Warrington, UK, http://europe.appliedbiosystems.com). Each reaction contained 0.6 μM of each primer and Taqman probe (MWG). Biological and technical replicates were each performed in triplicate for each sample, standardised to the GAPDH housekeeping gene and relative expression values were calculated using the 7300 system SDS software (Applied Biosystems, Warrington, UK, http://europe.appliedbiosystems.com).
Cells were enzymatically passaged onto matrigel-coated dishes and grown for 2 weeks in defined media. After 14 days, qRT-PCR was utilised to analyse the expression of a variety of markers of pluripotency and differentiation. In the graphs in FIG. 9 the value 1 was set to the expression level of the gene in undifferentiated SA121 hESCs.
Cells were enzymatically passaged onto matrigel-coated dishes and grown for 2 weeks in defined media (1× confluent T25 tissue culture flask was passaged to 2×12 well dishes) with or without (control) compound addition. All compounds were added at 10 uM and each was performed in triplicate. Media and compounds were changed every 48 hours. After 14 days RNA was isolated and qRT-PCR was utilised to analyse the expression of NANOG and PAX6. The results are illustrated in FIGS. 13 to 17.
In the graphs in FIGS. 13, 14 15, 16 and 17 the value 1 was set relative to the expression level of the gene in the control (no compound) samples. […] This experiment allowed the effect of the EHNA-related compounds to be measured directly in comparison to EHNA. […] Those which had on effect, to these levels, on either PAX6 or NANOG were considered to have a partial-EHNA effect.

Row | Structure (SMILES) | PARTIAL EHNA EFFECT (PAX6) (SA121 hESCs) | NO EHNA EFFECT (SA121 hESCs) | also measured
1 | CCCCCCCCCCn1cc2c(N)ncnc2n1 [HWC-3, 2-decyl-2H-pyrazolo[3,4-d]pyrimidin-4-amine] | – | – | solubility in 5% DMSO-water [1]: poor solubility
2 | CCCCCCC(C(C)O)n1cnc2c(Cl)ncnc21 (stereo not drawn) [HWC10, erythro-3-(6-Chloro-9H-purin-9-yl)nonan-2-ol] | X (Those which had on effect, to these levels, on either PAX6 or NANOG were considered to have a partial-EHNA effect) | – | –
3 | COc1ncnc2c1ncn2[C@H](C)[C@@H](O)CCc1ccccc1.Cl [HWC43, (3S,4R)-4-(6-methoxy-9H-purin-9-yl)-1-phenylpentan-3-ol hydrochloride] | – | X | –
4 | CCCCCC[C@@H]([C@@H](C)O)n1cnc(C(N)=O)c1 [HWC36, erythro-1-(2-hydroxynonan-3-yl)-1H-imidazole-4-carboxamide] | – | X | –
5 | CCCCCCCC(CC)n1cnc2c(N)ncnc21 (racemic) [HWC63, (rac)-9-(decan-3-yl)-9H-purin-6-amine] | X (Those which had on effect, to these levels, on either PAX6 or NANOG were considered to have a partial-EHNA effect) | – | –
6 | CCCCCC[C@@H]([C@@H](C)O)n1cnc2c(OC)ncnc21.Cl [HWC15, erythro-3-(6-methoxy-9H-purin-9-yl)nonan-2-ol hydrochloride] | – | X | –
7 | CCCCCCCCCn1ncc2c(N)ncnc21.Cl [HWC31, 1-nonyl-1H-pyrazolo[3,4-d]pyrimidin-4-amine hydrochloride] | – | – | Full EHNA effect (SA121 hESCs): X
8 | CCCCCC(CC)n1cnc2c(N)ncnc21 (racemic) [HWC62, (rac)-9-(octan-3-yl)-9H-purin-6-amine] | – | – | Full EHNA effect (SA121 hESCs): X
9 | CCCCCCC(C(C)O)n1nnc2cnccc21 (racemic) [HWC54, (rac)-erythro-3-(1H-[1,2,3]triazolo[4,5-c]pyridin-1-yl)nonan-2-ol] | – | X | –
10 | CCCCCCC(C(C)O)n1cnc2c(NN)ncnc21 (stereo not drawn) [HWC27, erythro-3-(6-hydrazinyl-9H-purin-9-yl)nonan-2-ol] | X (Those which had on effect, to these levels, on either PAX6 or NANOG were considered to have a partial-EHNA effect) | – | –
11 | CCCCCCCCCCCn1ncc2c(N)ncnc21.Cl [HWC33, 1-undecyl-1H-pyrazolo[3,4-d]pyrimidin-4-amine hydrochloride] | – | – | Full EHNA effect (SA121 hESCs): X
12 | CCCCCCC(C(C)O)n1cnc2c(NC)ncnc21 (stereo not drawn) [HWC16, erythro-3-[6-(methylamino)-9H-purin-9-yl]nonan-2-ol] | X (Those which had on effect, to these levels, on either PAX6 or NANOG were considered to have a partial-EHNA effect) | – | –
13 | CCCCCC[C@@H](O)[C@H](C)n1cnc2c(OC)ncnc21 [HWC51, (2S,3R)-2-(6-methoxy-9H-purin-9-yl)nonan-3-ol] | – | X | –
14 | CCCCCC[C@@H]([C@@H](C)O)n1cnc2c(N)nccc21.Cl [HWC9, erythro-3-(4-Amino-1H-imidazo[4,5-c]pyridin-1-yl)nonan-2-ol hydrochloride] | X (Those which had on effect, to these levels, on either PAX6 or NANOG were considered to have a partial-EHNA effect) | – | –
15 | CCCCCC[C@@H]([C@@H](C)O)n1cnc2c(OC)ncnc21 [HWC53, (2R,3S)-3-(6-methoxy-9H-purin-9-yl)nonan-2-ol] | – | X | –
16 | CCCCCC[C@H](O)[C@@H](C)n1cnc2c(OC)ncnc21 [HWC49, (2R,3S)-2-(6-methoxy-9H-purin-9-yl)nonan-3-ol] | – | X | –
17 | CCCCCC[C@@H]([C@@H](C)O)n1cnc2c(N(C)C)ncnc21.Cl [HWC17, erythro-3-[6-(dimethylamino)-9H-purin-9-yl]nonan-2-ol hydrochloride] | X (Those which had on effect, to these levels, on either PAX6 or NANOG were considered to have a partial-EHNA effect) | – | –
18 | CCCCCCC(C(C)O)n1c(C)nc2c(N)ncnc21.Cl (stereo not drawn) [HWC24, erythro-3-(6-Amino-8-methyl-9H-purin-9-yl)nonan-2-ol hydrochloride] | X (Those which had on effect, to these levels, on either PAX6 or NANOG were considered to have a partial-EHNA effect) | – | –
19 | COc1ccc(Cc2nn3c([C@@H](CCCc4ccccc4)[C@@H](C)O)nc(C)c3c(=O)[nH]2)cc1OC [BAY-60-7550, reference compound] | – | – | PAX6 expression in differentiating conditions (SA121 hESCs): nor did they inhibit PAX6 induction; stem cell marker expression (NANOG, ZFP42, POU5F1) in differentiating conditions (SA121 hESCs; FIG. 9a): Neither BAY nor IBMX maintained stem cell marker expression
20 | CCCCCCCCCCn1cnc2c(N)ncnc21 [HWC64, 9-(decan-1-yl)-9H-purin-6-amine] | – | – | Full EHNA effect (SA121 hESCs): X
